The structures appear in SMILES notation.

The test system of the assay is human FXN. The assay is described as follows: EC50 assay: FXN mRNA expression by qRT-PCR in GM15850 cells after 48 hrs compound treatment. As to conditions: Homo sapiens, 48 hrs incubation, hFXN expression normalized to hGAPDH (qRT-PCR), read-out: EC50 WT (nM, 48 hr). It counts as cell-based. A digest of the protocol: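 FXN transcript, normalized to GAPDH by TaqMan qRT-PCR, read out after 48 hrs of compound on GM15850 cells plated at 150,000 per well. Dosing used five 3-fold steps from 150 nM final, vehicle 0.01% DMSO.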
As to `Cc1sc2c(c1C)C(c1ccc(Cl)cc1)=N[C@@H](CC(=O)N1CCN(CC3CCN(CCOCCOCCOCCOCCOCCN4CCC(CN5CCN(C(=O)CCNC(=O)c6nc(NC(=O)CCNC(=O)c7cc(NC(=O)c8nc(NC(=O)CCNC(=O)c9cc(NC(=O)c%10nccn%10C)cn9C)cn8C)cn7C)cn6C)CC5)CC4)CC3)CC1)c1nnc(C)n1-2` [Compound 18], the 50% effective concentration (EC50) (commonly the concentration giving half of the maximal effect) was greater than 500 nM.

Regarding `Cc1sc2c(c1C)C(c1ccc(Cl)cc1)=N[C@@H](CC(=O)N1CCC(C#CC#CC3CCN(CCOCCOCCOCCNC(=O)CCNC(=O)c4nc(NC(=O)CCNC(=O)c5cc(NC(=O)c6nc(NC(=O)CCNC(=O)c7cc(NC(=O)c8nccn8C)cn7C)cn6C)cn5C)cn4C)CC3)CC1)c1nnc(C)n1-2` [Compound 139], the EC50 was less than 100 nM.

Consider `Cc1sc2c(c1C)C(c1ccc(Cl)cc1)=N[C@@H](CC(=O)NC1CCN(CCOCCOCCOCCOCCOCCOCCOCCOCCNC(=O)CCNC(=O)c3nc(NC(=O)CCNC(=O)c4cc(NC(=O)c5nc(NC(=O)CCNC(=O)c6cc(NC(=O)c7nccn7C)cn6C)cn5C)cn4C)cn3C)CC1)c1nnc(C)n1-2` [Compound 88], for which the EC50 is less than 100 nM.

As for `Cc1cc(F)cc(C)c1Oc1ccc(C(C)(C)O)cc1-c1cn(C)c(=O)c2[nH]c(C(=O)Nc3ccc(OCCOCCOCCOCCOCCOCCOCCOCCn4cc(CNC(=O)c5nc(NC(=O)CCNC(=O)c6cc(NC(=O)c7nc(NC(=O)CCNC(=O)c8cc(NC(=O)c9nccn9C)cn8C)cn7C)cn6C)cn5C)nn4)cc3)cc12` [Compound 217, N-({1-[23-(4-{4-[2-(4-fluoro-2,6-dimethylphenoxy)-5-(2-hydroxypropan-2-yl)phenyl]-6-methyl-7-oxo-1H-pyrrolo[2,3-c]pyridine-2-amido}phenoxy)-3,6,9,12,15,18,21-heptaoxatricosan-1-yl]-1,2,3-triazol-4-yl}methyl)-1-methyl-4-[3-({1-methyl-4-[1-methyl-4-(3-{[1-methyl-4-(1-methylimidazole-2-amido)pyrrol-2-yl]formamido}propanamido)imidazole-2-amido]pyrrol-2-yl}formamido)propanamido]imidazole-2-carboxamide], the EC50 is less than 100 nM.

For the molecule `Cc1sc2c(c1C)C(c1ccc(Cl)cc1)=N[C@@H](CC(=O)N1CCN(CCOCCOCCOCCN3CCN(CCOCCOCCOCCNC(=O)CCNC(=O)c4nc(NC(=O)CCNC(=O)c5cc(NC(=O)c6nc(NC(=O)CCNC(=O)c7cc(NC(=O)c8nccn8C)cn7C)cn6C)cn5C)cn4C)CC3)CC1)c1nnc(C)n1-2` [Compound 27], the EC50 is greater than 500 nM.

As to `Cc1sc2c(c1C)C(c1ccc(Cl)cc1)=N[C@@H](CC(=O)N1CCC(C#CC#CCNCCOCCOCCOCCOCCNC(=O)CCNC(=O)c3nc(NC(=O)CCNC(=O)c4cc(NC(=O)c5nc(NC(=O)CCNC(=O)c6cc(NC(=O)c7nccn7C)cn6C)cn5C)cn4C)cn3C)CC1)c1nnc(C)n1-2` [Compound 79], the EC50 was less than 100 nM.

On to `Cc1sc2c(c1C)C(c1ccc(Cl)cc1)=N[C@@H](CC(=O)NC1CCN(CCOCCOCCOCCN3CCN(CCOCCOCCOCCNC(=O)CCNC(=O)c4nc(NC(=O)CCNC(=O)c5cc(NC(=O)c6nc(NC(=O)CCNC(=O)c7cc(NC(=O)c8nccn8C)cn7C)cn6C)cn5C)cn4C)CC3)CC1)c1nnc(C)n1-2` [Compound 23], for which the EC50 fell in the range of 100 to 500 nM.

Consider `Cc1sc2c(c1C)C(c1ccc(Cl)cc1)=N[C@@H](CC(=O)NC1CCN(CCOCCOCCOCCOCCOCCOCCOCCNC3CCN(C(=O)CCNC(=O)c4nc(NC(=O)CCNC(=O)c5nc(NC(=O)c6nc(NC(=O)CCNC(=O)c7cc(NC(=O)c8nccn8C)cn7C)cn6C)cn5C)cn4C)CC3)CC1)c1nnc(C)n1-2` [Compound 99], for which the 50% effective concentration (EC50) lay in the range of 100 to 500 nM.

For `Cc1sc2c(c1C)C(c1ccc(Cl)cc1)=N[C@@H](CC(=O)NC1CCN(CC#CC#CC3CCN(CCOCCOCCOCCOCCOCCNC(=O)CCNC(=O)c4nc(NC(=O)CCNC(=O)c5cc(NC(=O)c6nc(NC(=O)CCNC(=O)c7cc(NC(=O)c8nccn8C)cn7C)cn6C)cn5C)cn4C)CC3)CC1)c1nnc(C)n1-2` [Compound 92], the EC50 was less than 100 nM.

In the case of `Cc1sc2c(c1C)C(c1ccc(Cl)cc1)=N[C@@H](CC(=O)Nc1ccc(C#CC#CCN(CCOCCOCCOCCOCCOCCNC(=O)CCNC(=O)c3nc(NC(=O)CCNC(=O)c4cc(NC(=O)c5nc(NC(=O)CCNC(=O)c6cc(NC(=O)c7nccn7C)cn6C)cn5C)cn4C)cn3C)CCC3CCN(C)CC3)cc1)c1nnc(C)n1-2` [Compound 43], the EC50 fell in the range of 100 to 500 nM.

For `Cc1sc2c(c1C)C(c1ccc(Cl)cc1)=N[C@@H](CC(=O)Nc1ccc(C#CC3CCN(CCOCCOCCOCCOCCOCCOCCNC(=O)CCNC(=O)c4nc(NC(=O)CCNC(=O)c5cc(NC(=O)c6nc(NC(=O)CCNC(=O)c7cc(NC(=O)c8nccn8C)cn7C)cn6C)cn5C)cn4C)CC3)cc1)c1nnc(C)n1-2` [Compound 11], the concentration giving a half-maximal response (EC50) is less than 100 nM.

Turning to `COc1ccc2c(c1)C(c1ccc(Cl)cc1)=N[C@@H](CC(=O)N1CCC(CN3CCN(CCOCCOCCOCCOCCOCCOCCOCCNC(=O)CCNC(=O)c4nc(NC(=O)CCNC(=O)c5cc(NC(=O)c6nc(NC(=O)CCNC(=O)c7cc(NC(=O)c8nccn8C)cn7C)cn6C)cn5C)cn4C)CC3)CC1)c1nnc(C)n1-2` [Compound 56], the EC50 is 100 to 500 nM.

Turning to `Cc1sc2c(c1C)C(c1ccc(Cl)cc1)=N[C@@H](CC(=O)Nc1ccc(C#CC#CCN(CCN3CCN(C)CC3)C(=O)COCCOCCOCCOCCOCCNC(=O)CCNC(=O)c3nc(NC(=O)CCNC(=O)c4cc(NC(=O)c5nc(NC(=O)CCNC(=O)c6cc(NC(=O)c7nccn7C)cn6C)cn5C)cn4C)cn3C)cc1)c1nnc(C)n1-2` [Compound 42], the half-maximal effective concentration (EC50) was less than 100 nM.

Consider `Cc1sc2c(c1C)C(c1ccc(Cl)cc1)=N[C@@H](CC(=O)N1CCC(C#CC#CCNCCOCCOCCOCCOCCOCCOCCNC(=O)CCNC(=O)c3nc(NC(=O)CCNC(=O)c4cc(NC(=O)c5nc(NC(=O)CCNC(=O)c6cc(NC(=O)c7nccn7C)cn6C)cn5C)cn4C)cn3C)CC1)c1nnc(C)n1-2` [Compound 78], for which the EC50 is less than 100 nM.

Turning to `Cc1cc(F)cc(C)c1Oc1ccc(C(C)(C)O)cc1-c1cn(C)c(=O)c2[nH]c(C(=O)N3CCC(C#CC#CC4CCN(CCOCCOCCOCCOCCNC(=O)CCNC(=O)c5nc(NC(=O)CCNC(=O)c6cc(NC(=O)c7nc(NC(=O)CCNC(=O)c8cc(NC(=O)c9nccn9C)cn8C)cn7C)cn6C)cn5C)CC4)CC3)cc12` [Compound 135], the EC50 was 100 to 500 nM.

`CC(=O)N1c2ccc(-c3ccc(C(=O)N4CCC(C#CC#CC5CCN(CCOCCOCCOCCOCCNC(=O)CCNC(=O)c6nc(NC(=O)CCNC(=O)c7cc(NC(=O)c8nc(NC(=O)CCNC(=O)c9cc(NC(=O)c%10nccn%10C)cn9C)cn8C)cn7C)cn6C)CC5)CC4)cc3)cc2C(Nc2ccc(Cl)cc2)C[C@@H]1C` (stereo partly drawn) [Compound 145]: the EC50 is less than 100 nM.

As for `COCCOCCOCCOCCOCCOCCOCCOCCOCCOCCOCCOCCOCCOCCOCCOCCC(=O)N1CCC(NC(=O)CCOCCOCCOCCN2CCC(NC(=O)C[C@@H]3N=C(c4ccc(Cl)cc4)c4c(sc(C)c4C)-n4c(C)nnc43)CC2)(C(=O)NCCOCCOCCOCCOCCNC(=O)CCNC(=O)c2nc(NC(=O)CCNC(=O)c3cc(NC(=O)c4nc(NC(=O)CCNC(=O)c5cc(NC(=O)c6nccn6C)cn5C)cn4C)cn3C)cn2C)CC1` [Compound 74], the EC50 was greater than 500 nM.

Regarding `Cc1sc2c(c1C)C(c1ccc(Cl)cc1)=N[C@@H](CC(=O)N1CC3(CCN(CCOCCOCCOCCN4CCN(CCOCCOCCOCCNC(=O)CCNC(=O)c5nc(NC(=O)CCNC(=O)c6cc(NC(=O)c7nc(NC(=O)CCNC(=O)c8cc(NC(=O)c9nccn9C)cn8C)cn7C)cn6C)cn5C)CC4)CC3)C1)c1nnc(C)n1-2` [Compound 25], the EC50 was greater than 500 nM.
